Source: PubChem BioAssay AID1963424 (Molecular Pharmacology Branch, DTP, NCI, 2024)

Test system: 327498-153-R-J2-PDC complex spheroid growth, % test/control
Test: Anticancer human tumor 327498-153-R-J2-PDC patient-derived uterine carcinosarcoma cell line growth inhibition [Asc]
Details: for IC50: curve of first compound; for viability, T/C: stronger effect = lower value
How it was run: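 Complex spheroids combining tumor cells with HUVEC endothelial cells and human MSCs, at 37 degrees C, 5% CO2; agents tested alone or combined, half-log dilutions from at or near clinical Cmax, or 10 microM if Cmax unknown.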

[1] = second compound 0.01 µM, first compound 0.0316 µM
[2] = second compound 0.01 µM, first compound 0.1 µM
[3] = second compound 0.0316 µM, first compound 0.0316 µM
[4] = second compound 0.0316 µM, first compound 0.1 µM
[5] = second compound 0.1 µM, first compound 0.0316 µM
[6] = second compound 0.1 µM, first compound 0.1 µM
[7] = second compound 0.316 µM, first compound 0.0316 µM
[8] = second compound 0.316 µM, first compound 0.1 µM
[9] = second compound 1 µM, first compound 0.0316 µM
[10] = second compound 1 µM, first compound 0.1 µM
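Also: spheroids exposed to compound for 7 days after 3 days of growth.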
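For viability, T/C in this document: 100% = DMSO vehicle control wells.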

Cc1nc(N2CCC3(CC2)COC(C)C3N)c(CO)nc1Sc1ccnc(N)c1Cl (stereo not given) + CCN1C(C(=O)NC23CCC(C(=O)O)(CC2)CC3)C(c2cccc(Cl)c2F)C2(C(=O)Nc3cc(Cl)ccc32)C12CCCCC2
IC50 (second compound 0.03 µM): 242 nM | IC50 (second compound 0.0949 µM): 48.4 nM | IC50 (second compound 0.3 µM): < 9.49 nM | IC50 (second compound 0.949 µM): < 9.49 nM | IC50 (second compound 3 µM): < 9.49 nM | viability, T/C (second compound 0.03 µM, first compound 0.00949 µM): 79.9% | viability, T/C (second compound 0.03 µM, first compound 0.03 µM): 74.8% | viability, T/C (second compound 0.03 µM, first compound 0.0949 µM): 64.1% | viability, T/C (second compound 0.03 µM, first compound 0.3 µM): 44% | viability, T/C (second compound 0.03 µM, first compound 0.949 µM): 41% | viability, T/C (second compound 0.03 µM, first compound 3 µM): 30.3% | viability, T/C (second compound 0.0949 µM, first compound 0.00949 µM): 57% | viability, T/C (second compound 0.0949 µM, first compound 0.03 µM): 58% | viability, T/C (second compound 0.0949 µM, first compound 0.0949 µM): 41.3% | viability, T/C (second compound 0.0949 µM, first compound 0.3 µM): 27.8% | viability, T/C (second compound 0.0949 µM, first compound 0.949 µM): 22.2% | viability, T/C (second compound 0.0949 µM, first compound 3 µM): 15.7% | viability, T/C (second compound 0.3 µM, first compound 0.00949 µM): 30.7% | viability, T/C (second compound 0.3 µM, first compound 0.03 µM): 24.3% | viability, T/C (second compound 0.3 µM, first compound 0.0949 µM): 13.7% | viability, T/C (second compound 0.3 µM, first compound 0.3 µM): 12.3% | viability, T/C (second compound 0.3 µM, first compound 0.949 µM): 8.52% | viability, T/C (second compound 0.3 µM, first compound 3 µM): 6.36% | viability, T/C (second compound 0.949 µM, first compound 0.00949 µM): 6.38% | viability, T/C (second compound 0.949 µM, first compound 0.03 µM): 6.83% | viability, T/C (second compound 0.949 µM, first compound 0.0949 µM): 2.73% | viability, T/C (second compound 0.949 µM, first compound 0.3 µM): 11.8% | viability, T/C (second compound 0.949 µM, first compound 0.949 µM): 2.12% | viability, T/C (second compound 0.949 µM, first compound 3 µM): 2.01% | viability, T/C (second compound 3 µM, first compound 0.00949 µM): 2.07% | viability, T/C (second compound 3 µM, first compound 0.03 µM): 2.17% | viability, T/C (second compound 3 µM, first compound 0.0949 µM): 2.3% | viability, T/C (second compound 3 µM, first compound 0.3 µM): 2.57% | viability, T/C (second compound 3 µM, first compound 0.949 µM): 0.76% | viability, T/C (second compound 3 µM, first compound 3 µM): 0.83%

Cn1ncnc1[C@H]1c2n[nH]c(=O)c3cc(F)cc(c23)N[C@@H]1c1ccc(F)cc1 + CNC(C)C(=O)NC1CN(S(=O)(=O)c2cccc(S(=O)(=O)N3CCC4CCC(C(=O)NC(c5ccccc5)c5ccccc5)N4C(=O)C(NC(=O)C(C)NC)C3)c2)CCC2CCC(C(=O)NC(c3ccccc3)c3ccccc3)N2C1=O
IC50 (second compound 0.01 µM): 16.2 nM | IC50 (second compound 0.0316 µM): 17 nM | IC50 (second compound 0.1 µM): 17.7 nM | IC50 (second compound 0.316 µM): 14.7 nM | IC50 (second compound 1 µM): 16.6 nM | viability, T/C (second compound 0.01 µM, first compound 0.000316 µM): 98.5% | viability, T/C (second compound 0.01 µM, first compound 0.001 µM): 109% | viability, T/C (second compound 0.01 µM, first compound 0.00316 µM): 101% | viability, T/C (second compound 0.01 µM, first compound 0.01 µM): 68% | viability, T/C [1]: 24.8% | viability, T/C [2]: 8.36% | viability, T/C (second compound 0.0316 µM, first compound 0.000316 µM): 98.9% | viability, T/C (second compound 0.0316 µM, first compound 0.001 µM): 111% | viability, T/C (second compound 0.0316 µM, first compound 0.00316 µM): 98.2% | viability, T/C (second compound 0.0316 µM, first compound 0.01 µM): 73.8% | viability, T/C [3]: 22.6% | viability, T/C [4]: 8.68% | viability, T/C (second compound 0.1 µM, first compound 0.000316 µM): 98.2% | viability, T/C (second compound 0.1 µM, first compound 0.001 µM): 106% | viability, T/C (second compound 0.1 µM, first compound 0.00316 µM): 91.2% | viability, T/C (second compound 0.1 µM, first compound 0.01 µM): 73.3% | viability, T/C [5]: 27.1% | viability, T/C [6]: 7.43% | viability, T/C (second compound 0.316 µM, first compound 0.000316 µM): 100% | viability, T/C (second compound 0.316 µM, first compound 0.001 µM): 112% | viability, T/C (second compound 0.316 µM, first compound 0.00316 µM): 111% | viability, T/C (second compound 0.316 µM, first compound 0.01 µM): 64.7% | viability, T/C [7]: 21.5% | viability, T/C [8]: 8% | viability, T/C (second compound 1 µM, first compound 0.000316 µM): 99.3% | viability, T/C (second compound 1 µM, first compound 0.001 µM): 105% | viability, T/C (second compound 1 µM, first compound 0.00316 µM): 107% | viability, T/C (second compound 1 µM, first compound 0.01 µM): 68.9% | viability, T/C [9]: 25.3% | viability, T/C [10]: 8.08%

O=C(c1cc(Cc2n[nH]c(=O)c3ccccc23)ccc1F)N1CCN(C(=O)C2CC2)CC1 + CNC(C)C(=O)NC1CN(S(=O)(=O)c2cccc(S(=O)(=O)N3CCC4CCC(C(=O)NC(c5ccccc5)c5ccccc5)N4C(=O)C(NC(=O)C(C)NC)C3)c2)CCC2CCC(C(=O)NC(c3ccccc3)c3ccccc3)N2C1=O
IC50 (second compound 0.01 µM): 4520 nM | IC50 (second compound 0.0316 µM): 3830 nM | IC50 (second compound 0.1 µM): 3780 nM | IC50 (second compound 0.316 µM): 4070 nM | IC50 (second compound 1 µM): 3710 nM | viability, T/C [1]: 98.8% | viability, T/C [2]: 105% | viability, T/C (second compound 0.01 µM, first compound 0.316 µM): 102% | viability, T/C (second compound 0.01 µM, first compound 1 µM): 99.2% | viability, T/C (second compound 0.01 µM, first compound 3.16 µM): 67.9% | viability, T/C (second compound 0.01 µM, first compound 10 µM): 11.3% | viability, T/C [3]: 102% | viability, T/C [4]: 100% | viability, T/C (second compound 0.0316 µM, first compound 0.316 µM): 108% | viability, T/C (second compound 0.0316 µM, first compound 1 µM): 88.5% | viability, T/C (second compound 0.0316 µM, first compound 3.16 µM): 58.7% | viability, T/C (second compound 0.0316 µM, first compound 10 µM): 9.57% | viability, T/C [5]: 97.5% | viability, T/C [6]: 99.9% | viability, T/C (second compound 0.1 µM, first compound 0.316 µM): 102% | viability, T/C (second compound 0.1 µM, first compound 1 µM): 89.8% | viability, T/C (second compound 0.1 µM, first compound 3.16 µM): 57.6% | viability, T/C (second compound 0.1 µM, first compound 10 µM): 9.51% | viability, T/C [7]: 104% | viability, T/C [8]: 107% | viability, T/C (second compound 0.316 µM, first compound 0.316 µM): 94.5% | viability, T/C (second compound 0.316 µM, first compound 1 µM): 91.4% | viability, T/C (second compound 0.316 µM, first compound 3.16 µM): 60.3% | viability, T/C (second compound 0.316 µM, first compound 10 µM): 11.1% | viability, T/C [9]: 96.8% | viability, T/C [10]: 100% | viability, T/C (second compound 1 µM, first compound 0.316 µM): 94.5% | viability, T/C (second compound 1 µM, first compound 1 µM): 90.3% | viability, T/C (second compound 1 µM, first compound 3.16 µM): 56.4% | viability, T/C (second compound 1 µM, first compound 10 µM): 9.85%
